Reference: patent US20240344082A1, “VIRAL […] USE IN ENHANCING T-CELL PRIMING DURING VACCINATION” (GeoVax, Inc., priority 2021, published 2024)

Legend:
[1] = tested on: splenic PyCS-specific, IFN-γ-secreting CD8+ T cells; set-up: species or system mice; conditions: mouse, in vivo, sc
[2] = tested on: antigen-specific CD8+ T-cell expansion; conditions: in combination with adenovirus-based or irradiated sporozoite-based malaria vaccine; immune-competent mice; cited from earlier work

CRRTSTGQISTLRVNITAPLSQ [LD01, synthetic peptide used as positive control]
antigen-specific CD8+ T cell numbers relative to AdPyCS alone [1]: significantly increased
antigen-specific CD8+ T-cell expansion [2]: enhances
